Test system: not listed separately
Assay: approximate acute toxicity (LD50) in the mouse, per os
Details: in vivo, po, single administration of increasing doses, measured on the seventh day
Method: For example, the approximate acute toxicity (LD50) of the compound 2-trans-(2-phenyl-ethenyl)-3-propyl-4-oxo-4H-pyrido(1,2-a)pyrimidine-7-carboxylic acid in the mouse, determined with single adminstration of increasing doses and measured on the seventh day of treatment is per os higher than 800 mg/kg. Analogous toxicity data have been found for the other compounds of the invention.

Row | Structure (SMILES) | LD50 at 168 h [mg/kg]
1 | CCCc1c(/C=C/c2ccccc2)nc2ccc(C(=O)O)cn2c1=O [K 13808, 2-trans-(2-phenyl-ethenyl)-3-propyl-4-oxo-4H-pyrido[1,2-a]pyrimidine-7-carboxylic acid] | > 800

Test system: passive cutaneous anaphylaxis (PCA)
Assay: IgE-mediated passive cutaneous anaphylaxis (PCA) test in rats, oral administration
Format: in vivo
Details: rat PCA, p.o., pretreatment time 15'; KB = dose reducing to one half the activity of the sensitizing serum; lower = more active
Text: The compounds of the invention have anti-allergic activity, and are therefore useful in the prevention and treatment of all the affections of allergic origin, e.g. bronchial asthma, allergic rhinitis, hay fever, urticaria and dermatosis. The anti-allergic activity of the compounds of the invention is shown, e.g., by the first that they are active in the passive cutaneous anaphylaxis (PCA) test in rats, according to Goose J. and Blair A. M. J. N. (Immunology, 16, 749, 1969).
The activity data are expressed in terms of KB defined as the dose of active compound capable of reducing to one half the activity of the serum used for the sensitization:
B=dose of antagonist compound expressed in mg/kg;
DR=dose ratio: antilogarithm of the distance between the Log dose effect functions of the scrum with and without antagonist (J. H. Gaddum et al, Exp. Physiol., 1955, 40, 49).
The KB is adopted here because this value is independent both of the dose of the drug and the reagin concentration used for the sensitization.
The lower the KB value, the higher the anti-allergic activity.
The anti-allergic activity was determined e.g. by the inhibition of the IgE-mediated PCA according to Goose J. and Blair A. M. J. N. (Immunology, 16, 749, 1969) using homocytotropic antibodies raised in rats following the method of Mota I., Immunology, 7, 681, (1964).
The tested compounds were administered per os (p.o) 15 minutes before the administration of the antigen: at least 6 rats were used for each dose.

Row | Structure (SMILES) | Anti-allergic activity KB [mg/kg]
2 | CCCc1c(/C=C/c2cccc(OC)c2OC)nc2n(c1=O)C1CC1(C(=O)O)C=C2 (stereo not drawn) [FCE 20461, 2-trans-[2-(2,3-dimethoxy-phenyl)-ethenyl]-3-propyl-6,7-methylen-4-oxo-4H-pyrido[1,2-a]pyrimidine-7-carboxylic acid] | 1.22
3 | CCCc1c(/C=C/c2cccc(OC)c2)nc2ccc(C(=O)O)cn2c1=O [FCE 20183, 2-trans-[2-(3-methoxy-phenyl)-ethenyl]-3-propyl-4-oxo-4H-pyrido[1,2-a]pyrimidine-7-carboxylic acid] | 1.48
4 | CCCc1c(/C=C/c2ccccc2)nc2ccc(C(=O)O)cn2c1=O [K 13808, 2-trans-(2-phenyl-ethenyl)-3-propyl-4-oxo-4H-pyrido[1,2-a]pyrimidine-7-carboxylic acid] | 2.16
5 | CCCc1c(/C=C/c2ccccc2C)nc2ccc(C(=O)O)cn2c1=O [FCE 20099, 2-trans-[2-(2-methyl-phenyl)-ethenyl]-3-propyl-4-oxo-4H-pyrido[1,2-a]pyrimidine-7-carboxylic acid] | 2.02
6 | CCc1c(/C=C/c2cccc(OC)c2)nc2n(c1=O)C1CC1(C(=O)O)C=C2 (stereo not drawn) [FCE 20509, 2-trans-[2-(3-methoxy-phenyl)-ethenyl]-3-ethyl-6,7-methylen-4-oxo-4H-pyrido[1,2-a]pyrimidine-7-carboxylic acid] | 0.61
7 | CCCc1c(/C=C/c2ccccc2)nc2n(c1=O)C1CC1(C(=O)O)C=C2 (stereo not drawn) [FCE 20188, 2-trans-(2-phenyl-ethenyl)-3-propyl-6,7-methylen-4-oxo-4H-pyrido[1,2-a]pyrimidine-7-carboxylic acid] | 2.34
8 | O=C(O)c1cc(=O)c2c(OCC(O)COc3cccc4oc(C(=O)O)cc(=O)c34)cccc2o1 [Disodium Cromoglycate, reference compound] | > 200
9 | CCc1c(/C=C/c2ccccc2)nc2n(c1=O)C1CC1(C(=O)O)C=C2 (stereo not drawn) [K 13830, 2-trans-(2-phenyl-ethenyl)-3-ethyl-6,7-methylen-4-oxo-4H-pyrido[1,2-a]pyrimidine-7-carboxylic acid] | 1.15
